Laboratory results reported in patent US20090130020A1, “DIAGNOSTIC AGENTS FOR POSITRON EMISSION IMAGING USING F-18 RADIO-LABELED AMINO-ALCOHOLS” (priority 2007, published 2009).

Key:
tumor = details: bio-distribution studies; cited from earlier work
[1] = tested on: tumor cells lines A375, PC-3, HCT-116, A549 and DU-145; assay: Time dependent uptake of [F-18]-labeled compounds, all cell lines together; type: cell-based
Procedure: (§1) The uptake of [F-18]-labeled compounds was investigated by incubating 5×10^6 cells in 350 μl incubation buffer with 0.5 MBq [F-18]-labeled compound and taking aliquots at the various time points. The aliquots were transferred into oil, centrifuged shortly to separate cells from free compounds. The tubes were frozen, the cell pellet in the tip of the tube was cut off and radioactivity was measured in a gamma counter.
FIG. 7: Time dependent uptake of [F-18]-Fluoroethyl-Choline (FE-Ch) into the tumor cells lines A375, PC-3, HCT-116, A549 and DU-145.
FIG. 8: Time dependent uptake of [F-18]-Fluoroethyl-N-Methyl-Ethanolamine into the tumor cells lines A375, PC-3, HCT-116, A549 and DU-145.
FIG. 9: Time dependent uptake of [F-18]-Fluoroethyl-N-Ethyl-Ethanolamine into the tumor cells lines A375, PC-3, HCT-116, A549 and DU-145.
FIG. 10: Time dependent uptake of [F-18]-Fluoropropyl-N-Methyl-Ethanolamine into the tumor cells lines A375, PC-3, HCT-116, A549 and DU-145.

PC-3 prostate cell line = assay: Uptake of [F-18]-labeled compounds into tumor cells; type: cell-based; details: 5×10^6 cells, 0.5 MBq, time point not given
Procedure: as §1

melanoma cell line A375 = assay: as above; type: cell-based; details: 5×10^6 cells, 0.5 MBq, time point not given
Procedure: as §1

[2] = tested on: DU-145 prostate cell line; assay: as above; type: cell-based; details: 5×10^6 cells, 0.5 MBq, time point not given
Procedure: as §1

[3] = tested on: lung cancer cell line A549; assay: as above; type: cell-based; details: 5×10^6 cells, 0.5 MBq, time point not given
Procedure: as §1

[4] = tested on: colon cancer cell line HCT-116; assay: as above; type: cell-based; details: 5×10^6 cells, 0.5 MBq, time point not given
Procedure: as §1

| Compound | tumor uptake in bio-distribution (tumor) | uptake after 30 min ([1]; after 30 min, across the cell lines (FIG. 8)) | uptake (PC-3 prostate cell line) | uptake (melanoma cell line A375) | uptake [2] | uptake [3] | uptake [4] | maximum value of uptake reached after 60 min ([1]; after 60 min, all cell lines) | course of uptake over time ([1]; over the 60 minutes investigated) |
| --- | --- | --- | --- | --- | --- | --- | --- | --- | --- |
| [C-14]dimethyl-ethanolamine | tumor uptake | – | – | – | – | – | – | – | – |
| [C-14]ethanolamine [[C-14] derivative of ethanolamine (1)] | tumor uptake | – | – | – | – | – | – | – | – |
| CN(CCO)CC[18F] [[F-18]-Fluoroethyl-N-Methyl-Ethanolamine, [F-18]2-[(2-Fluoro-ethyl)-methyl-amino]-ethanol] | – | 17-30% | 25.5% | 22% | 20.5% | 17% | 29% | – | – |
| C[N+](C)(CCO)CC[18F] [FE-Ch, [F-18]-Fluoroethyl-Choline] | – | – | 6.5% | 4% | 3% | 4% | 4% | 5-10% | slowly linear increasing |
